Assay results taken from patent publication US8906826B2, “Herbicidal compositions comprising 4-amino-3-chloro-5-fluoro-6-(4-chloro-2-fluoro-3-methoxyphenyl) pyridine-2-carboxylic acid or a derivative thereof and imidazolinones” (Dow AgroSciences, LLC, priority 2012, dated 2014).

Tests used:
DIGSA = assay: Postemergence foliar-applied, direct seeded rice weeds (Example I); type: in vivo, Digitaria sanguinalis (L.) Scop.
Text: (§1) Seeds or nutlets of the desired test plant species were planted in a soil matrix prepared by mixing a loam or sandy loam soil (e.g., 28.6 percent silt, 18.8 percent clay, and 52.6 percent sand, with a pH of about 5.8 and an organic matter content of about 1.8 percent) and calcareous grit in an 80 to 20 ratio. The soil matrix was contained in plastic pots with a volume of 1 quart and a surface area of 83.6 cm^2. When required to ensure good germination and healthy plants, a fungicide treatment and/or other chemical or physical treatment was applied. The plants were grown for 8-22 days in a greenhouse with an approximate 14 h photoperiod which was maintained at about 29° C. during the day and 26° C. during the night. Nutrients (Peters Excel® 15-5-15 5-Ca 2-Mg and iron chelate) were applied in the irrigation solution as needed and water was added on a regular basis. Supplemental lighting was provided with overhead metal halide 1000-Watt lamps as necessary. The plants were employed for testing when they reached the first through fourth true leaf stage.
(§2) Treatments consisted of the acid or esters of 4-amino-3-chloro-5-fluoro-6-(4-chloro-2-fluoro-3-methoxy-phenyl)pyridine-2-carboxylic acid (Compound A), each formulated as an SC (suspension concentrate), and various herbicidal components alone and in combination. Forms of compound A were applied on an acid equivalent basis.
(§3) Other herbicidal components were applied on an acid equivalent basis and include acetolactate synthase (ALS)-inhibiting herbicides (imidazolinone chemical class) imazethapyr ammonium salt formulated as Newpath®, imazamox ammonium salt formulated as Beyond®, imazapic ammonium salt formulated as Plateau®, imazapyr isopropylamine salt formulated as Arsenal®, imazamethabenz-methyl (technical material) and imazaquin isopropylamine salt formulated as Scepter®/Imagine®.
(§4) Treatment requirements were calculated based upon the rates being tested, the concentration of active ingredient or acid equivalent in the formulation, and a 12 mL application volume at a rate of 187 L/ha.
For treatments comprised of formulated compounds, measured amounts of compounds were placed individually in 25 mL glass vials and diluted in a volume of 1.25% (v/v) Agri-Dex® crop oil concentrated to obtain 12× stock solutions. […]
(§5) For treatments comprised of formulated and technical compounds, weighed amounts of the technical materials were placed individually in 25 mL glass vials and dissolved in a volume of 97:3 v/v acetone/DMSO to obtain 12× stock solutions, and measured amounts of the formulated compounds were placed individually in 25 mL glass vials and diluted in a volume of 1.5% (v/v) crop oil concentrate or water to obtain 12× stock solutions. […]

ECHCG = assay: as above; type: in vivo, Echinochloa crusgalli (L.) Beauv.
Text: as §1, §2, §3, §4
For treatments comprised of formulated compounds, measured amounts of compounds were placed individually in 25 mL glass vials and diluted in a volume of 1.25% (v/v) Agri-Dex® crop oil concentrated to obtain 12× stock solutions. […] Application solutions were prepared by adding an appropriate amount of each stock solution (e.g., 1 mL) and diluted to the appropriate final concentrations with the addition of 10 mL of an aqueous mixture of 1.25% (v/v) crop oil concentrate so that the final spray solutions contained 1.25+/−0.05% (v/v) crop oil concentrate.
For treatments comprised of technical compounds, weighed amounts can be placed individually in 25 mL glass vials and dissolved in a volume of 97:3 v/v acetone/DMSO to obtain 12× stock solutions. […] Application solutions can be prepared by adding an appropriate amount of each stock solution (e.g., 1 mL) and diluted to the appropriate final concentrations with the addition of 10 mL of an aqueous mixture of 1.5% (v/v) crop oil concentrate so that the final spray solutions contain 1.25% (v/v) crop oil concentrate. When technical materials are used, the concentrated stock solutions can be added to the spray solutions so that the final acetone and DMSO concentrations of the application solutions are 16.2% and 0.5%, respectively.
as §5

ALOMY = assay: Postemergence foliar-applied, general weed control (Example III); type: in vivo, Alopecurus myosuroides Huds.
Method: Seeds or nutlets of the desired test plant species were planted in Sun Gro Metro-Mix® 360 planting mixture, which typically has a pH of about 6.0 to about 6.8 and an organic matter content of about 30 percent, in plastic pots with a surface area of 84.6 cm^2 and a volume of 560 cubic centimeters (cm^3). When required to ensure good germination and healthy plants, a fungicide treatment and/or other chemical or physical treatment was applied. The plants were grown for 7-31 days (d) in a greenhouse with an approximate 15 hour (h) photoperiod which was maintained at about 23-29° C. during the day and about 22-28° C. during the night. Nutrients (Peters Excel® 15-5-15 5-Ca 2-Mg) and water were added on a regular basis and supplemental lighting was provided with overhead metal halide 1000-Watt lamps as necessary. The plants were employed for testing when they reached the first, second, or third true leaf stage.
as §4
Treatments consisted of the acid or esters of 4-amino-3-chloro-5-fluoro-6-(4-chloro-2-fluoro-3-methoxy-phenyl)pyridine-2-carboxylic acid (Compound A), each formulated as an SC, and various herbicidal components alone and in combination. Forms of compound A were applied on an acid equivalent basis.
Other herbicidal components were applied on an acid equivalent basis and included acetolactate synthase (ALS)-inhibiting herbicides (imidazolinone chemical class) imazethapyr ammonium salt formulated as Newpath®, and imazapic ammonium salt formulated as Plateau®.
For treatments comprised of formulated compounds, measured amounts of compounds were placed individually in 25 mL glass vials and diluted in a volume of 1.25% (v/v) Agri-Dex® crop oil concentrated to obtain 12× stock solutions. […] Application solutions were prepared by adding an appropriate amount of each stock solution (typically 1 mL) and diluted to the appropriate final concentrations with the addition of 10 mL of an aqueous mixture of 1.25% (v/v) crop oil concentrate so that the final spray solutions contained 1.25+/−0.05% (v/v) crop oil concentrate.
All stock solutions and applications solutions were visually inspected for compound compatibility prior to application. […]
The treated plants and control plants were placed in a greenhouse as described above and watered by sub-irrigation to prevent wash-off of the test compounds. After approximately 3 weeks, the condition of the test plants as compared with that of the untreated plants was determined visually and scored on a scale of 0 to 100 percent where 0 corresponds to no injury or growth inhibition and 100 corresponds to complete kill. […]

In the case of `COCc1cnc(C2=NC(C)(C(C)C)C(=O)N2)c(C(=O)O)c1.N` (racemic) [Imazamox ammonium, ammonium (±)-2-[4,5-dihydro-4-methyl-4-(1-methylethyl)-5-oxo-1H-imidazol-2-yl]-5-(methoxymethyl)-3-pyridinecarboxylate], the “Visual Weed Control (%) - 20 DAA DIGSA Obs” value (DIGSA; Imazamox ammonium 44.8 gae/ha) is reported as 60%, the “Visual Weed Control (%) - 25 DAA ECHCG Obs” value (ECHCG; Imazamox ammonium 5.6 gae/ha) is reported as 15% and the “Visual Weed Control (%) - 25 DAA ECHCG Obs” value (ECHCG; Imazamox ammonium 11.2 gae/ha) is reported as 20%. The “Visual Weed Control (%) - 25 DAA ECHCG Obs” value (ECHCG; Imazamox ammonium 22.4 gae/ha) was 60%.

`COc1c(Cl)ccc(-c2nc(C(=O)OCc3ccccc3)c(Cl)c(N)c2F)c1F` [Compound A Benzyl Ester, benzyl ester of 4-amino-3-chloro-5-fluoro-6-(4-chloro-2-fluoro-3-methoxy-phenyl)pyridine-2-carboxylic acid] was tested, and the “Visual Control (%) - 19 DAA ALOMY Obs” value (ALOMY; Compound A Benzyl Ester 24 gae/ha) was 20%.

For `COc1c(Cl)ccc(-c2nc(C(=O)O)c(Cl)c(N)c2F)c1F` [Compound A Acid, 4-amino-3-chloro-6-(4-chloro-2-fluoro-3-methoxyphenyl)-5-fluoropyridine-2-carboxylic acid], the “Visual Weed Control (%) - 20 DAA DIGSA Obs” value (DIGSA; Compound A Acid 19.3 gae/ha) was 13%, the “Visual Weed Control (%) - 19 DAA ALOMY Obs” value (ALOMY; Compound A Acid 29 gae/ha) was 10% and the “Visual Weed Control (%) - 25 DAA ECHCG Obs” value (ECHCG; Compound A Acid 4.38 gae/ha) was 20%. For the same compound, the “Visual Weed Control (%) - 25 DAA ECHCG Obs” value (ECHCG; Compound A Acid 8.75 gae/ha) was 50%.

`CCc1cnc(C2=NC(C)(C(C)C)C(=O)N2)c(C(=O)O)c1.N` (racemic) [Imazethapyr ammonium, ammonium (±)-2-[4,5-dihydro-4-methyl-4-(1-methylethyl)-5-oxo-1H-imidazol-2-yl]-5-ethyl-3-pyridinecarboxylate] was tested, and the “Visual Weed Control (%) - 20 DAA DIGSA Obs” value (DIGSA; Imazethapyr ammonium 70 gae/ha) was 80%.

`Cc1cnc(C2=NC(C)(C(C)C)C(=O)N2)c(C(=O)O)c1.N` (racemic) [Imazapic ammonium, ammonium (±)-2-[4,5-dihydro-4-methyl-4-(1-methylethyl)-5-oxo-1H-imidazol-2-yl]-5-methyl-3-pyridinecarboxylic acid] was tested, and the “Visual Control (%) - 19 DAA ALOMY Obs” value (ALOMY; Imazapic ammonium 35 gae/ha) was 30%, the “Visual Weed Control (%) - 19 DAA ALOMY Obs” value (ALOMY; Imazapic ammonium 35 gae/ha) was 30% and the “Visual Weed Control (%) - 25 DAA ECHCG Obs” value (ECHCG; Imazapic ammonium 4.38 gae/ha) was 20%. The “Visual Weed Control (%) - 25 DAA ECHCG Obs” value (ECHCG; Imazapic ammonium 8.75 gae/ha) was 40%.
